Experimental data from the NIST ThermoML archive (doi:10.1016/j.fluid.2011.06.020).

Conditions: Liquid, Closed cell (Static) method

CCOC(=O)CCC(=O)O [4-ethoxy-4-oxobutanoic acid]
Conditions	vapor or sublimation pressure [kPa]
417.7 K	1.587
421.2 K	2.089
425.1 K	2.591
428.5 K	3.094
433 K	3.596
435.6 K	4.098
436.7 K	4.601
439.8 K	5.103
440.3 K	5.605
443 K	6.107
444.3 K	6.61
445.9 K	7.112
447.6 K	7.614
449.1 K	8.117
450.5 K	8.619
452.1 K	9.121
453.2 K	9.624
454.7 K	10.13
455.7 K	10.63
456.5 K	11.13
457.2 K	11.63
458.2 K	12.14
458.4 K	12.64
459.8 K	13.14
460.1 K	13.64
460.3 K	14.14
461.1 K	14.65
462 K	15.15
463.3 K	15.65
463.8 K	16.15
464.2 K	16.66
464.5 K	17.16
465.2 K	17.66
465.8 K	18.16
466.7 K	18.67
467.3 K	19.17
467.8 K	19.67
468.3 K	20.17
468.8 K	20.67
469.5 K	21.18
469.7 K	21.68
469.8 K	22.18
470.1 K	22.68
470.3 K	23.19
470.4 K	23.69
470.5 K	24.19
471.1 K	24.69
471.4 K	25.2
471.9 K	25.7
